Experiments:
[1] = molecular target: T1, native state (Fe3+) of hMPO (Homo sapiens, UniProt P05164); test: Low temperature ESR binding assay (binding-induced g shift, Rrelative); conditions: for ESR Rrelative: Rrelative = (Rbound - Rnative)/Rnative x 100, inhibitor:MPO 40:1, pH 6, 6 % DMSO, 4-7 K; for Δg: absolute difference between g X and g Y of the bound complex; for ESR Binding: class by Rrelative, inhibitor:MPO 40:1; for g X / g Y: electronic g value of the bound complex, X-band ESR, 5 K
T1 construct: purchased Athens Research and Technology
T1 sequence (P05164 49-745): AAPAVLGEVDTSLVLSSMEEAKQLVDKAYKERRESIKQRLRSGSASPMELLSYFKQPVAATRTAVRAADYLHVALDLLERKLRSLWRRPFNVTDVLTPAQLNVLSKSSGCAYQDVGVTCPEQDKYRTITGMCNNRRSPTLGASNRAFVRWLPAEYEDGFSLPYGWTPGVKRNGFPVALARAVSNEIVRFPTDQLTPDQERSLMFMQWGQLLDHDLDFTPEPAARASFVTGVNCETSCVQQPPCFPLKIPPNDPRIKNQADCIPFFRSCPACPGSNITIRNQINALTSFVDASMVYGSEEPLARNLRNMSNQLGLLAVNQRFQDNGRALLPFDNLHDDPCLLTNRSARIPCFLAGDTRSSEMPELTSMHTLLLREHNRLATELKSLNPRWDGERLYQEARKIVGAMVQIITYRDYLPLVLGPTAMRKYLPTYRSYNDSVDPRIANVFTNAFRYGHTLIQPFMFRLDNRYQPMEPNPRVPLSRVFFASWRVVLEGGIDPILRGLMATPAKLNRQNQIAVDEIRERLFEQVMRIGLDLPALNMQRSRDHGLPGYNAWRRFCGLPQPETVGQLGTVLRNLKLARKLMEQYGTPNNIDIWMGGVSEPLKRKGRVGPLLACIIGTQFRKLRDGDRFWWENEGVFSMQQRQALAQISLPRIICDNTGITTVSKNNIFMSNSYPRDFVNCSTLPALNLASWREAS
Method: After 5-min. incubation at room temperature, the entire reaction mixture (0.235 mL) was transferred to the ESR quartz tubes. To avoid the quartz tubes breaking during the rapid freezing cycles, the ESR tubes were initially frozen in a 1:1 Isopentane-Cyclohexane mixture cooled with dry ice powder and then transferred to a liquid nitrogen Dewar to be queued up for ESR measurements. The reaction mixture contained a final concentration of 6 % DMSO. ESR spectra were recorded on a Varian E-12, X-band spectrometer equipped with an Air Products liquid helium cryostat.
The experimental g values correspond to the spin Hamiltonian pertinent to the high-spin ion (S = 5/2).1 H=DSZ2-1/3SS+1+E/DSX2-SY2+βgeS.Be where D and E are the eigen values of the axial and rhombic field components, i.e., the symmetry of the ligand (inhibitors approaching heme in this case). […] When the heme lodges inside the protein, the protein side chain amino acid (histidine) approaches the heme vicinity and either binds (axially) directly to the iron in the heme pocket. […] Thus, the fifth ligand leads to lower (rhombic) symmetries causing the signal at g ~ 6 to split. This non-tetragonal splitting of the heme is quantitated by the relationship,2 E/D=Δg/48 where ∆g represents the absolute difference between the gX and gY components. Alternatively, making use of the fact that E/D maximum value = 1/3, one can simplify the above expression as a percentage of rhombicity, R:3 R=Δg/16×100%. […] To rank-order molecules in terms of their ability to distort the heme pocket/plane environment, we used a ratio of total distortion in the bound complex w.r.t. distortion seen in the native unbound enzyme:4 Rrelative=Rbound-Rnative/Rnative×100.
From the relative rhombicities of the bound and unbound complex, a measure of the strength of binding could be derived. […] For the ease of classification, we have empirically defined those with 5 ≤ Rrelative ≥ 2 as weak binding; 15 ≥ Rrelative ≥ 10 as moderate binding; and 25 ≥ Rrelative ≥ 15 as strong binding (Table 2).

Human Myeloperoxidase = molecular target: T2, Human Myeloperoxidase (Homo sapiens, UniProt P05164); test: X-ray co-crystal growth by soaking MPO crystals with inhibitor; conditions: crystals soaked with 50 mM inhibitor
T2 construct: purchased Lee Biosciences 426-10
T2 sequence (P05164 49-745): T1 sequence (P05164 49-745)
Method: Human Myeloperoxidase and co-crystals of MPO were crystallized and analyzed using methods similar to those described by Davey and Fenna. Briefly, hanging drops of 25 mg/mL MPO, 25 mM sodium acetate pH 5.0, 50 mM NaCl, 50 mM ammonium sulfate, 2 mM calcium chloride, and 3-10 % polyethylene glycol 8000 were set up at 21 °C over reservoir solutions containing 300 mM sodium chloride. Crystals of the space group P21 and having two MPO subunits per asymmetric unit grew with the aid of micro-seeding as very thin plates having a brownish orange tinge. Crystals were soaked with inhibitor compounds at a concentration of 50 mM, in a stabilizing buffer containing 18 % polyethylene glycol 8000, 56 mM ammonium sulfate, 2.2 mM calcium acetate, and 56 mM HEPES pH 7.0. Co-crystals were cryo-protected in a stabilizing buffer containing 22.2 % methylpentanediol prior to flash cooling in liquid nitrogen.
Diffraction data were collected at 100 K using Synchrotron beam line 31ID at the Advanced Photon Source (Argonne National Laboratory) and were integrated using MOSFLM v.6.2.6 [18]. […] Inhibitor binding to the MPO heme group was indicated by appropriately shaped peaks in the Fo–Fc electron density maps. The inhibitor was included in the model, and iterative cycles of manual model building with COOT [20] and restrained refinement with REFMAC v5.2.0019 [21] were used to complete the overall structure. Figures of the crystal structure were generated using PYMOL (www.pymol.org). […] The higher B-factors for the inhibitor molecules could be attributed to inhibitor occupancies of less than 1.0 or to higher degrees of thermal motion associated with the inhibitors. Lower than expected electron density peak heights were also observed for the Cl atom in the inhibitors, which could be due to the radiation damage to this X-Ray sensitive group.

[2] = ABTS radical cation decolorization assay to measure the antioxidant capacity; conditions: % inhibition at 20 uM single dose, read at 734 nm after 30 min
Method: The assay was modeled after the published procedure. Briefly, ABTS radical cation was prepared by adding 100 μl of 70 mM K2S2O8 to 10 ml ABTS, followed by vortexing and incubating at 37 °C water bath for 2 h. […] Trolox standards are dissolved in water. The reaction is started by adding the ABTS radical cation solution to the MPO inhibitors or Trolox (final concentration 20 μM). The plate is gently shaken for 1 min and then set on a bench top at room temperature for 30 min.

hMPO = molecular target: T3, hMPO (Homo sapiens, UniProt P05164); test: Peroxidase inhibition assay: ESR of hMPO exposed to H2O2 with and without inhibitor; type: biochemical; conditions: inhibitor added before H2O2 (555 μM); inhibitor:MPO 40:1, in DMSO
T3 construct: purchased Biodesign A31804H
T3 sequence (P05164 49-745): T1 sequence (P05164 49-745)
Method: Hydrogen peroxide (30 %, v/v; 9.71 M) is used with different dilutions in ice-cold deionized water. MPO at 50 μl of 20.8 μM (4.6 μM final concentration) is incubated with different concentrations of H2O2 in the absence and in the presence of inhibitors (inhibitor to MPO concentration is 40:1) for 1 min and rapidly frozen at 77 K. The inhibitors are added to MPO, incubated for 5 min prior to H2O2 addition in these reactions.

[3] = ESR, Inhibitor:MPO ratio 40:1, DMSO 6 %

SMILES	proportion of the enzyme bound [1, 3]	proportion of the enzyme unbound [1, 3]	ESR Rrelative [1]	Δg [1]	ESR Binding [1]	g X [1]	g Y [1]	X ray Cocrystal result (Human Myeloperoxidase)	% Anti oxidant potential [2]	prevention of peroxide-induced ESR changes (decay of g X and g Y, growth of g ~ 6) (hMPO)
O=C(O)c1nn(-c2ccccc2)cc1O [LSN17948]	70%	30%	24.2	2.256	Strong (25 ≥ Rrelative ≥ 15 as strong binding)	6.995	4.739	Yes	42.1%	The spectrum is unchanged and no g intermediate signal is seen
O=C(O)c1n[nH]c(-c2ccccc2)c1O [LSN87637]			14.1	2.09	Moderate (15 ≥ Rrelative ≥ 10 as moderate binding)	6.917	4.827	Yes	65.9%	
O=C(O)c1nn(-c2cccc3ccccc23)cc1O [LSN2944556]			29.1	2.308	Strong (25 ≥ Rrelative ≥ 15 as strong binding)	7.0681	4.7601	Yes	67.6%	

Source: publication PMC4515242, “ESR and X-ray Structure Investigations on the Binding and Mechanism of Inhibition of the Native State of Myeloperoxidase with Low Molecular Weight Fragments” (Applied Magnetic Resonance, 2015)
